Source: patent publication US10821195B2, “Compositions for therapeutics, targeted PET imaging and methods of their use” (Memorial Sloan Kettering Cancer Center, priority 2015, dated 2020)
Several values for one entry are separate records, joined by “and”; a condition that tells them apart may be missing. Equal entries are not always repeated.

Columns and labels:
[1] = Stability of ^89Zr complexes in human serum at 37° C. for 7 d (ITLC, SEC)
Description: Seven day old samples of the Zr-ligand complexes were run down a size exclusion column to differentiate protein and ligand.
Serum stability and immunoreactivity of ^89Zr-complexes were evaluated. To determine the stability in serum, ^89Zr-complexes were incubated in human serum at 37° C. for 7 d. The percentage of intact species was monitored by ITLC (Table 9).
^89Zr-ligand and ^89Zr-ligand-antibody complexes were prepared according to the radiolabeling protocol as described above. For each ^89Zr complex, samples were made consisting of 900 μL human serum and 100 μL of the ^89Zr species and were placed in a heat block at 37° C. with agitation. Samples were monitored using radio-TLC before being added to the serum and then after 1 week of incubation. The stability of the complexes was measured as the percentage of ^89Zr that was retained at the origin of the ITLC strip and therefore still intact.

[2] = Biodistribution and clearance of ^89Zr-HOPO and ^89Zr-DFO in healthy mice; type: in vivo, healthy athymic nude mice; parameters: biodistribution Spleen / biodistribution Stomach / biodistribution Large Intestine / biodistribution Small Intestine / biodistribution Kidney / biodistribution Bladder / biodistribution Muscle / biodistribution Bone / biodistribution Tail / biodistribution Blood / biodistribution Heart / biodistribution Lung / biodistribution Gall Bladder / biodistribution Liver: unit not given here
Text: Significant uptake of ^89Zr-HOPO occurs in the gall bladder and intestines as well as the kidney. […] As ^89Zr-DFO is cleared exclusively through the kidneys and not through the hepatobiliary system, it is excreted from the body faster than ^89Zr-HOPO, as evidenced by the blood clearance curve (FIG. 10). While not wishing to be bound to theory, upon conjugation to an antibody, the pharmacokinetics of a ^89Zr-HOPO complex comprising ^89Zr-HOPO and an antibody can be superseded by those of the biomacromolecule, meaning that a difference in clearance pathways between ^89Zr-HOPO and ^89Zr-DFO should not be a concern. However, over the short circulation time of the Zr-ligand complexes, neither DFO nor HOPO show any signs of instability or bone accumulation.

[3] = EDTA transchelation challenge of ^89Zr complexes; type: physicochemical; details: 50-fold excess of EDTA, 37° C., various pHs, 7 days
Text: (§1) In contrast, ^89Zr-HOPO is shown to be approximately impervious to the EDTA. […] This represents a significant improvement in the stability of the Zr-ligand complex at lower pH. […] Initially activity is seen in the bladder, gall bladder, and intestines.

[4] = FIG. 2
Text: Table printed on a drawing sheet, FIG. 2
as §1
First reader's note: Cell hatching encodes the percent-intact class given in the legend; the values show stability of the radiometal-chelator complexes against EDTA transchelation.

## CC(=O)N(O)CCCCCNC(=O)CCC(=O)N(O)CCCCCNC(=O)CCC(=O)N(O)CCCCCNC(=S)Nc1ccc(N=C=S)cc1 (89Zr complex, metal not drawn) [p-SCN-Bn-DFO]
[1]; ^89Zr-ligand complex, human serum, 7 d, ITLC
  percentage of intact species, Ligand Only: 97.7±0.2%

## CC(=O)N1CCCCCNC(=O)CCC(=O)N2CCCCCNC(=O)CCC(=O)N(CCCCCN)[O][89Zr+]([O]1)[O]2 [^89Zr-DFO]
[2]; 10 min
  biodistribution Bladder: 2.50 ± 0.48
  biodistribution Blood: 5.11 ± 0.90
  biodistribution Bone: 0.43 ± 0.10
  biodistribution Gall Bladder: 1.57 ± 0.25
  biodistribution Heart: 2.17 ± 0.62
  biodistribution Kidney: 14.44 ± 5.88
  biodistribution Large Intestine: 0.43 ± 0.13
  biodistribution Liver: 0.88 ± 0.49
  biodistribution Lung: 2.16 ± 1.08
  biodistribution Muscle: 0.73 ± 0.56
  biodistribution Small Intestine: 0.94 ± 0.16
  biodistribution Spleen: 0.37 ± 0.22
  biodistribution Stomach: 0.62 ± 0.28
  biodistribution Tail: 5.13 ± 2.92
[2]; 1 h
  biodistribution Bladder: 2.47 ± 1.30
  biodistribution Blood: 0.10 ± 0.04
  biodistribution Bone: 0.07 ± 0.04
  biodistribution Gall Bladder: 0.47 ± 0.14
  biodistribution Heart: 0.06 ± 0.02
  biodistribution Kidney: 1.39 ± 0.55
  biodistribution Large Intestine: 0.02 ± 0.01
  biodistribution Liver: 0.24 ± 0.07
  biodistribution Lung: 0.14 ± 0.04
  biodistribution Muscle: 0.02 ± 0.01
  biodistribution Small Intestine: 0.35 ± 0.17
  biodistribution Spleen: 0.06 ± 0.02
  biodistribution Stomach: 1.10 ± 0.51
  biodistribution Tail: 0.26 ± 0.05
[2]; 4 h
  biodistribution Bladder: 1.22 ± 0.77
  biodistribution Blood: 0.03 ± 0.01
  biodistribution Bone: 0.04 ± 0.02
  biodistribution Gall Bladder: 0.26 ± 0.15
  biodistribution Heart: 0.03 ± 0.01
  biodistribution Kidney: 1.10 ± 0.44
  biodistribution Large Intestine: 0.62 ± 0.55
  biodistribution Liver: 0.12 ± 0.03
  biodistribution Lung: 0.04 ± 0.02
  biodistribution Muscle: 0.01 ± 0.01
  biodistribution Small Intestine: 0.04 ± 0.02
  biodistribution Spleen: 0.03 ± 0.01
  biodistribution Stomach: 0.06 ± 0.02
  biodistribution Tail: 0.14 ± 0.08
[2]; 12 h
  biodistribution Bladder: 0.69 ± 0.31
  biodistribution Blood: 0.01 ± 0.00
  biodistribution Bone: 0.03 ± 0.01
  biodistribution Gall Bladder: 0.16 ± 0.14
  biodistribution Heart: 0.02 ± 0.00
  biodistribution Kidney: 0.36 ± 0.13
  biodistribution Large Intestine: 0.07 ± 0.05
  biodistribution Liver: 0.06 ± 0.02
  biodistribution Lung: 0.02 ± 0.01
  biodistribution Muscle: 0.01 ± 0.00
  biodistribution Small Intestine: 0.01 ± 0.01
  biodistribution Spleen: 0.02 ± 0.01
  biodistribution Stomach: 0.01 ± 0.00
  biodistribution Tail: 0.13 ± 0.05
[2]; 24 h
  biodistribution Bladder: 0.56 ± 0.41
  biodistribution Blood: 0.02 ± 0.02
  biodistribution Bone: 0.06 ± 0.01
  biodistribution Gall Bladder: 0.23 ± 0.21
  biodistribution Heart: 0.02 ± 0.01
  biodistribution Kidney: 1.12 ± 0.33
  biodistribution Large Intestine: 0.02 ± 0.01
  biodistribution Liver: 0.11 ± 0.02
  biodistribution Lung: 0.04 ± 0.01
  biodistribution Muscle: 0.01 ± 0.00
  biodistribution Small Intestine: 0.02 ± 0.01
  biodistribution Spleen: 0.02 ± 0.01
  biodistribution Stomach: 0.01 ± 0.01
  biodistribution Tail: 0.08 ± 0.02
[2]; healthy mice
  clearance route: clears exclusively through the kidneys
[3]
  stability to transchelation by EDTA: susceptible to transchelation
[4]
  % INTACT STARTING SPECIES BY INCUBATION TIME | 1 h: 99.9±0.2% and 97.1±0.8% and 86.6±1.5%
  % INTACT STARTING SPECIES BY INCUBATION TIME | 3 h: 99.3±0.6% and 98.8±0.9% and 98.7±0.8% and 96.2±0.6% and 90.7±1.7% and 55.7±3.8%
[1]; bare ligand complexes, one week
  stability in human serum (ITLC and SEC): stable in serum over 7 days
